Experiment: gradient 5% acetonitrile 3 min, to 50% in 2 min, to 85% in 15 min, held 3 min, 100 µL/min
Settings: column: Zorbax Extend-C18 2.1 x 50 mm; eluents: water / acetonitrile, 0.1% formic acid
Outline: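 Pure standards were run in mixtures of ~100 molecules by HPLC coupled to a quadrupole time-of-flight mass spectrometer. The column was a Zorbax Extend-C18 (2.1 × 50 mm, 1.8 μm) at 100 μL/min, with water and acetonitrile each containing 0.1% formic acid, in positive and negative ionization mode. Dead and dwell volumes were 40 μL and 900 μL. Retention time was taken from computationally picked adduct peaks, each manually inspected, with data collected over 3 months.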

Row | RP-LC retention time | Compound
1 | 763 s | CN(Cc1ccoc1)C(=O)NC1CCCC1
2 | 745 s | O=c1cc(CN(Cc2ccccc2)Cc2ccccc2)nc2ccc(Cl)cn12
3 | 942 s | Cc1ccccc1-c1noc(N2CCC(C(=O)NCc3ccc4c(c3)OCO4)CC2)n1
4 | 1070 s | Cc1cc(C)c(S(=O)(=O)N2CCc3c(c(-c4nnc(-c5ccccc5F)o4)nn3C)C2)c(C)c1
5 | 965 s | COc1cccc2cc(-c3nnc(NC(=O)c4ccc([N+](=O)[O-])s4)o3)oc12
6 | 917 s | O=C(Nc1ccc(N2CCN(C3CCCC3)C2=O)nc1)c1cc(F)cc(F)c1
7 | 901 s | CCOc1nc(OCC)c2cnn(C)c2n1
8 | 702 s | O=C1C(=O)N(Cc2ccc(C(=O)N3CCCC3)cc2)CCN1Cc1ccc(F)cc1
9 | 560 s | O=C(NCCc1ccncc1)c1cnn(-c2ccccc2)n1
10 | 589 s | CN(C)C(CNC(=O)Nc1ccccc1Cl)c1cn(C)c2ccccc12 (centres undefined)
11 | 629 s | c1ccc(CCNc2nnc(-c3nc(C4CC4)no3)c3ccccc23)nc1
12 | 944 s | COc1cccc(-c2nc(-c3ccnc(N4CCOCC4)c3)no2)c1
13 | 810 s | COc1ccccc1C1(CNC(=O)Nc2ccccc2F)CCOCC1
14 | 804 s | CC1=C(C#N)C(C)(C)C(C#N)=C(C)N1
15 | 938 s | COc1cccc2c1OC1(C)CC2C(S(=O)(=O)c2ccc(C(C)C)cc2)C(=O)N1 (centres undefined)
16 | 807 s | Cc1ccc(-c2nnc(-c3nc(NCCCN4CCCC4=O)c4ccccc4n3)o2)cc1
17 | 893 s | O=C(Nc1ccc(-c2nc3cccnc3s2)cc1)c1ccccc1Cl
18 | 986 s | O=S(=O)(c1cc(-c2nnc(C3CC3)o2)co1)N1CCN(c2ccccc2F)CC1
19 | 603 s | O=C(Nc1cccnc1)C1CCCN(c2ncnc3c2nc2n3CCCCC2)C1 (centres undefined)
20 | 618 s | CN1CCN(CCNC(=O)CC2CCN(C(=O)c3cc4cc(Cl)ccc4[nH]3)CC2)CC1
21 | 620 s | CCC(=O)NC(c1ccc(N(C)C)cc1)c1ccc2cccnc2c1O (centres undefined)
22 | 1090 s | Cc1cc(=O)n(CC(=O)Nc2cc(F)ccc2F)c(-c2ccc(F)cc2)n1
23 | 667 s | NC(=O)c1ccccc1NC(=O)NC1CC(=O)N(c2ccc(Cl)cc2)C1 (centres undefined)

Row | RP-LC retention time | Compound
24 | 648 s | CN(C)c1ccc(CNC(=O)c2nnc(-c3ccc(S(=O)(=O)N4CCOCC4)cc3)o2)cc1
25 | 834 s | CCS(=O)(=O)N1CC(=O)N(c2ccc(C)cc2)C(C)(C(=O)NCc2ccc(F)cc2)C1 (centres undefined)
26 | 789 s | Cn1nc(-c2nc(-c3ccc(F)cc3)no2)c2c1CCN(C(=O)C1CCCO1)C2 (centres undefined)
27 | 1020 s | CCOC(=O)c1ccc(N2C=C(C#N)S(=O)(=O)c3ccc(Cl)cc32)cc1
28 | 569 s | CCNC(=O)N1C[C@@H]2CCCN3CCC[C@@H]([C@H]23)[C@H]1CCCC(=O)NCC1CC1
29 | 784 s | O=C(C1CC1)N1CCCn2nc(-c3cccc(F)c3)cc2C1
30 | 1020 s | CC(C)(C)c1noc(-c2ccnc(-n3cnc(C(=O)NC4CCCC4)c3)c2)n1
31 | 636 s | CCOC(=O)N1CCN(c2nc(F)c3c(c2F)S(=O)(=O)CCN3Cc2cccnc2)CC1
32 | 575 s | O=C1CCCCC(C(=O)N2CCOCC2)N1 (centres undefined)
33 | 897 s | CN(Cc1ccco1)C(=O)CC1CCN(C(=O)c2cc3cc(Cl)ccc3[nH]2)CC1
34 | 816 s | CSc1ccc(CNC(=O)Cn2c(C)cc(-c3nnc(C4CC4)o3)c2C)cc1
35 | 600 s | O=C(Nc1ccccc1Cl)N1CCN(c2cc(-c3ccncc3)[nH]n2)CC1
36 | 722 s | O=C(Nc1ccc(N2CCCCC2=O)cc1)c1cccc2ccccc12
37 | 855 s | O=C(CN1C(=O)CC(c2ccccc2)S(=O)(=O)c2ccccc21)NCCc1ccccc1 (centres undefined)
38 | 741 s | O=C(Cc1nnc(-c2ccc3ncccc3c2)o1)Nc1ccc(F)c(F)c1
39 | 611 s | COc1cc(CN2CCCCCC2c2cccs2)ccc1OCC(N)=O (centres undefined)
40 | 877 s | COc1cccc(C(=O)Nc2nc(-c3ccc4c(c3)NC(=O)CO4)c(C)s2)c1
41 | 596 s | O=C(c1cc(-c2cccs2)[nH]n1)N1CCN(c2ccccn2)CC1
42 | 854 s | CCOC(=O)c1cn(Cc2ccc(F)cc2)c2nc(C)ccc2c1=O
43 | 1040 s | CC(C)Cn1cc(CCNS(=O)(=O)c2ccc3c(c2)CCC3)c2cccnc21
44 | 856 s | CCOC(=O)c1ccc(Nc2c(-c3ccc(C(=O)OC)cc3)nc3cnccn23)cc1
45 | 606 s | CCOC(=O)CNC(=O)Nc1ccc(CCc2nc3ccccc3[nH]2)cc1
46 | 957 s | O=C(CCC(=O)N1Cc2cccn2-c2ccccc21)NCc1cccc(Cl)c1

Row | RP-LC retention time | Compound
47 | 682 s | O=C(NC1CCCC1)C1CCN(S(=O)(=O)c2cc(C(=O)N3CCOCC3)cs2)CC1
48 | 814 s | Cc1ccc(NC(=O)C2CCCN(S(=O)(=O)c3c[nH]c(C(=O)N4CCCC4)c3)C2)c(C)c1 (centres undefined)
49 | 862 s | CCc1ccc(CN2C(=O)C3(CCOCC3)CC2c2nnnn2C(C)(C)C)cc1 (centres undefined)
50 | 612 s | COc1ccc(-c2cc(N3CCN(C(=O)c4c(F)cccc4Cl)CC3)ncn2)cc1
51 | 939 s | COc1ccc(C2CC(=O)N(c3cccc(Cl)c3)C(=O)C2)cc1
52 | 728 s | CCCn1cnc2ccc(-c3noc(-c4cccc(OC)c4)n3)cc21
53 | 640 s | CC(C)CC(=O)N1CCC(C(=O)N2CCCCCCNC(=O)CC2)CC1
54 | 778 s | Cc1ccc(C)c(NC(=O)CSc2nnc3c4cc(-c5ccc(C)c(C)c5)nn4ccn23)c1
55 | 638 s | CN(C)c1cc(C(N)=O)c2cccc(Cl)c2n1
56 | 1260 s | Clc1cccc(-c2csc(Cc3nc(-c4ccc5c(c4)OCO5)no3)n2)c1
57 | 978 s | CCc1ccccc1NC(=O)C1CCC(=O)N1S(=O)(=O)c1ccc(C)c(C)c1 (centres undefined)
58 | 800 s | COc1cccc(CN2N=C(C(=O)N3CCOCC3)S(=O)(=O)c3ccccc32)c1
59 | 724 s | CCCCC#Cc1nc(NC)c2ncn([C@@H]3O[C@H](CO)C(O)[C@@H]3O)c2n1 (some centres undefined)
60 | 996 s | CCN(CC)S(=O)(=O)c1ccc2c(c1)N(CC(=O)N1CCCCCC1)C(=O)C1CCCCN21 (centres undefined)
61 | 796 s | CCn1cnc2c(-c3ccccc3)cn(CC(=O)NCc3ccco3)c2c1=O
62 | 1290 s | Cc1nn(-c2nc(-c3ccc(Cl)cc3)cs2)c(C)c1CC(=O)N1CCN(c2ccccc2)CC1
63 | 629 s | Cc1ccc(C(=O)N2CCN(c3nc(CN4CCOCC4)cs3)CC2)cc1F
64 | 807 s | COCCN1C(=O)c2ccccc2C(C(=O)NCCc2ccc(OC)cc2)C12CCCC2 (centres undefined)
65 | 740 s | Cc1ccc(NC(=O)Cn2ccc3sccc3c2=O)cc1C
66 | 764 s | O=C(Cc1csc2nc(-c3ccccc3)cn12)Nc1ccccc1F
67 | 812 s | CCn1nccc1C(=O)N1CCCC1c1cccc(F)c1 (centres undefined)
68 | 722 s | O=C(c1csc(S(=O)(=O)N2CCC(C(=O)N3CCCCCC3)CC2)c1)N1CCOCC1
69 | 1100 s | O=C(Nc1ccc(Cl)cc1)C1CCN(S(=O)(=O)c2ccc(-c3noc(C4CC4)n3)cc2)CC1

Row | RP-LC retention time | Compound
70 | 1020 s | CCCc1ccc(S(=O)(=O)N2CCC(n3c(-c4ccoc4)nc4cccnc43)C2)cc1 (centres undefined)
71 | 872 s | O=C(Nc1ccc(OCc2cc(C(=O)NC3CC3)no2)cc1)c1ccc(Cl)cc1
72 | 747 s | CCc1cc(=O)n(CC(=O)N(CC)c2ccccc2)c(N2CCOCC2)n1
73 | 670 s | CCn1cc(CN2CC(F)(F)C[C@H]2COc2ccncc2)c2ccccc21
74 | 690 s | Cc1ccc(-c2nnc(-c3cccnc3NCCCN3CCOCC3)o2)cc1
75 | 894 s | Cc1ccc2c(=O)c(C(=O)Nc3ccc(C)c(C)c3)c[nH]c2n1
76 | 1170 s | Nc1c(C(=O)Nc2nc(-c3ccccc3)cs2)sc2nc3c(cc12)CCCCC3
77 | 751 s | CCc1ccccc1NC(=O)N1CCC(c2cc(N)on2)CC1
78 | 736 s | Cc1nn(CCCC(=O)NCc2ccco2)c(=O)c2nn(-c3ccccc3)c(C)c12
79 | 628 s | CC(C)CC(=O)N1CCCC(C(=O)N2CCOCC2)C1 (centres undefined)
80 | 675 s | CC(=O)Nc1ccc(NC(=O)C2CC(=O)N(CCc3c[nH]c4ccc(F)cc34)C2)cc1 (centres undefined)
81 | 976 s | CCOc1ccc(-c2nc(NC(=O)c3sc(C)nc3C)sc2C)cc1
82 | 684 s | Cc1nc(N2CCN(Cc3ccc4c(c3)OCO4)CC2)nc2c1C(=O)CC(C)C2 (centres undefined)
83 | 870 s | CCOc1ccc(NC(=O)C2CC(=O)N(CCc3c[nH]c4ccc(Cl)cc34)C2)cc1 (centres undefined)
84 | 660 s | Cn1nc(C(=O)N2CCCC(C(=O)NC3CC3)C2)c2c1CCN(C(=O)c1c(F)cccc1F)C2 (centres undefined)
85 | 632 s | CC(=O)Nc1ccc(S(=O)(=O)N2CCN(c3cc(C)c4ccccc4n3)CC2)cc1
86 | 762 s | CCOC(=O)c1c(C)[nH]c(C(=O)N2CCC(CC(=O)NCc3ccccc3)CC2)c1C
87 | 895 s | c1ccc2c(N3CCCCCC3)nnc(-c3nc(C4CC4)no3)c2c1
88 | 755 s | Cc1nnc(NC(=O)CN2CCCCC2c2nc(C3CC3)no2)s1 (centres undefined)
89 | 717 s | FC(F)(F)c1cnc(N2CCN(Cc3ccccc3)CC2)c(Cl)c1

Source: the METLIN SMRT retention time set (Domingo-Almenara et al. 2019)
